# Experimental data as given in patent US20240317736A1, “DEUTERATED DERIVATIVE AS ATX INHIBITOR, AND APPLICATION THEREOF” (Xizang Haisco Pharmaceutical Co., Ltd., priority 2020, published 2024).
# Like-named read-outs stand apart in the source and are kept apart here.
# Tests used:
# [1] = Pharmacokinetic test in rats; format: in vivo; settings: male, SD, rat, plasma; for Cmax: read-out: C0 or Cmax; for bioavailability: PO 5 mg/kg vs IV 1 mg/kg
# Method: Test objective: test compounds were given to SD rats via single-dose intravenous and intragastric administration, the concentrations of the test compounds in plasma of rats were measured, and the pharmacokinetic characteristics and bioavailability of test compounds in rats were evaluated.
# Test animals: male SD rats, about 220 g, 6-8 weeks old, six rats/compound, purchased from Chengdu Ddossy Experimental Animals Co., Ltd.
# Test method: on the day of the test, 6 SD rats were randomly grouped according to their body weights. The rats were fasted with water available for 12-14 h one day before the administration, and were fed 4 h after the administration. The administration was performed according to Table 5.
# Before and after the administration, 0.1 mL of blood was taken from the orbits of the rats under isoflurane anaesthesia, and placed in an EDTAK2 centrifuge tube. Centrifugation was performed at 5000 rpm at 4° C. for 10 min, and plasma was collected.
# Time points for sample collection in group G1 comprise 0 min, 5 min, 15 min, 30 min, 1 h, 2 h, 4 h, 6 h, 8 h and 24 h.
# Time points for sample collection in group G2 comprise 0 min, 15 min, 30 min, 1 h, 2 h, 4 h, 6 h, 8 h and 24 h.
# 30 μL of each of plasma samples, standard curve samples and quality control samples was taken, and 200 μL of acetonitrile solution containing an internal standard was added, and the resulting mixture was homogeneously mixed by vortex and centrifuged at 4° C. at 12000 rpm for 10 min. 170 μL of the supernatant was taken to a 96-well plate, and LC-MS/MS analysis was performed, wherein the sample size was 2 μL.
# The main pharmacokinetic parameters were analyzed by a non-compartmental model using WinNonlin 8.0 software.
# [2] = biological target: T1, autocrine motility factor (Homo sapiens, UniProt Q13822); experiment: Inhibition of LPA formation in mixed ex vivo human plasma; format: biochemical; settings: 37° C., 2 h
# T1 construct: Whole blood was anticoagulated with heparin and centrifuged, and then plasma was collected; from tissue; host or cells: pooled human plasma (heparin-anticoagulated whole blood)
# Method: Autocrine motility factor is a phosphodiesterase in plasma that converts lysophosphatidylcholine (LPC) to lysophosphatidic acid (LPA). Therefore, the formation of LPA can be used to evaluate the potency of an autocrine motility factor inhibitor. The potency of the compound in mixed ex vivo human plasma was evaluated.
# Whole blood was anticoagulated with heparin and centrifuged, and then plasma was collected. 5 μL of gradient-diluted test compounds or DMSO was added to 95 μL of plasma and incubated at 37° C. for 2 h. After that, a stop buffer (40 mM disodium hydrogen phosphate buffer, containing 30 mM of citric acid, pH=4) was added. LPA in plasma was detected by LC-MSMS before and after incubation. In order to determine the concentration of LPA 18:2 or LPA 20:4 in the plasma in study, calibration standard substances at 20000 ng/mL, 10000 ng/mL, 5000 ng/ml, 2000 ng/ml, 1000 ng/mL, 500 ng/mL, 200 ng/ml, 100 ng/mL, 50 ng/ml, 20 ng/mL and 10 ng/ml for LPA 18:2 or LPA 20:4 were prepared by performing serial dilution in butanol. 3 μL of calibration standard solution was added to 27.0 μL of blank plasmas in each 1.5 mL microcentrifuge tube to produce 1× calibration standard substances. 30.0 μL of standard substances or plasma in study was added to each 1.5 mL microcentrifuge tube. 200 μL of butanol (containing 25.0 ng/mL LPA 17:0 for internal control) was added to each 1.5 mL microcentrifuge tube containing the plasma in study or calibration standard substance. Vortex oscillation was performed for 1 min, and centrifugation was performed at 10000 rpm for 10 min. 180 μL of the supernatant was transferred to a 96-well plate, and LC/MS/MS was used together with the standard substance to quantify the concentration of LPA 18:2 in the plasma. In short, 8 μL of the solution was injected, and LC-MS/MS analysis using an ACQUITY UPLC BEH C18 column (2.1×50 mm, 1.7 μm) was performed, wherein mobile phase A [20 mM NH4OAC aqueous solution (0.1% FA)] and mobile phase B [5 mM NH4OAC aqueous solution/0.2% FA in ACN=5:95] were used. The parameters of a mass spectrometer for LPA 18:2 were optimized by means of deprotonation of molecular ions. For LPA 18:2 at m/z 433.2([M−H]−), LPA 20:4 at 457.2, and LPA 18:2 and LPA 20:4 both at m/z 152.8, abundant product ions were obtained. Quantitative data were obtained in a multiple reaction monitoring (MRM) negative electrospray ionization mode.
# The inhibition rates of compounds at different concentrations on LPA formation were determined by comparing the changes of LPA levels in incubated and unincubated plasma. The IC50 of the compounds was calculated as a calculation inhibition rate, and the relative concentration at each well=the concentration at each well−the average concentration at baseline.
# Inhibition rate %=(average relative concentration at control well−average relative concentration at test well)/average relative concentration at control well×100%. The curve was plotted with the inhibition rates as a y axis and the compound concentrations as an x axis, and fitting was performed by GraphPad Prism7.0 using log (inhibitor) and normalized response (variable slope).
# [3] = LPA 18:2 by LC-MS/MS, read-out: IC50 for inhibiting LPA formation (18:2)
# [4] = LPA 20:4 by LC-MS/MS, read-out: IC50 for inhibiting LPA formation (20:4)
AUC ([1]; IV 1 mg/kg) [ng·h/mL],half-life ([1]; IV 1 mg/kg) [h],Cmax ([1]; IV 1 mg/kg) [ng/mL],AUC ([1]; PO 5 mg/kg) [ng·h/mL],Tmax ([1]; PO 5 mg/kg) [h],half-life ([1]; PO 5 mg/kg) [h],bioavailability [1] [%],Cmax ([1]; PO 5 mg/kg) [ng/mL],"IC50 [2, 3] [nM]","IC50 [2, 4] [nM]",Structure (SMILES)
1060 ± 124,2.6 ± 0.61,967 ± 106,1170 ± 46,4 ± 2,6.4 ± 2.4,22.1 ± 0.87,181 ± 10,46,48.5,"[2H]C([2H])([2H])C([2H])([2H])c1nn2cc(F)c(N3CCN(CC(=O)N4CC(O)C4)CC3)cc2c1N(C)c1nc(-c2ccc(F)cc2)c(C#N)s1 [Compound 1, 2-((2-(ethyl-d5)-6-fluoro-5-(4-(2-(3-hydroxyazetidin-1-yl)-2-oxoethyl)piperazin-1-yl)pyrazolo[1,5-a]pyridin-3-yl)(methyl)amino)-4-(4-fluorophenyl)thiazole-5-carbonitrile]"
1050 ± 84,2.05 ± 0.29,813 ± 85,1960 ± 858,2.83 ± 2,2.63 ± 0.071,37.3 ± 6,234 ± 136,–,–,"[2H]c1c([2H])c(-c2nc(N(c3c(CC)nn4cc(F)c(N5CCN(CC(=O)N6CC(O)C6)CC5)cc34)C([2H])([2H])[2H])sc2C#N)c([2H])c([2H])c1F [Compound 10, 2-((2-ethyl-6-fluoro-5-(4-(2-(3-hydroxyazetidin-1-yl)-2-oxoethyl)piperazin-1-yl)pyrazolo[1,5-a]pyridin-3-yl)(methyl-d3)amino)-4-(4-fluorophenyl-2,3,5,6-d4)thiazole-5-carbonitrile]"
943 ± 109,1.93 ± 0.072,748 ± 187,2420 ± 860,1.17 ± 0.76,2.43 ± 0.33,51.3 ± 18,399 ± 137,–,–,"[2H]c1c([2H])c(-c2nc(N(C)c3c(CC)nn4cc(F)c(N5CCN(CC(=O)N6CC(O)C6)CC5)cc34)sc2C#N)c([2H])c([2H])c1F [Compound 9, 2-((2-ethyl-6-fluoro-5-(4-(2-(3-hydroxyazetidin-1-yl)-2-oxoethyl)piperazin-1-yl)pyrazolo[1,5-a]pyridin-3-yl)(methyl)amino)-4-(4-fluorophenyl-2,3,5,6-d4)thiazole-5-carbonitrile]"
–,–,–,–,–,–,–,–,51.8,54.8,"[2H]C1([2H])N(CC(=O)N2CC(O)C2)C([2H])([2H])C([2H])([2H])N(c2cc3c(N(C)c4nc(-c5ccc(F)cc5)c(C#N)s4)c(CC)nn3cc2F)C1([2H])[2H] [Compound 4, 2-((2-ethyl-6-fluoro-5-(4-(2-(3-hydroxyazetidin-1-yl)-2-oxoethyl)piperazin-1-yl-2,2,3,3,5,5,6,6-d8)pyrazolo[1,5-a]pyridin-3-yl)(methyl)amino)-4-(4-fluorophenyl)thiazole-5-carbonitrile]"
1330 ± 83,2.4 ± 0.35,1030 ± 62,2570 ± 449,4.33 ± 2.9,2.87 ± 0.15,38.6 ± 6.7,297 ± 105,52,55.3,"[2H]C([2H])([2H])N(c1nc(-c2ccc(F)cc2)c(C#N)s1)c1c(C([2H])([2H])C([2H])([2H])[2H])nn2cc(F)c(N3CCN(CC(=O)N4CC(O)C4)CC3)cc12 [Compound 2, 2-((2-(ethyl-d5)-6-fluoro-5-(4-(2-(3-hydroxyazetidin-1-yl)-2-oxoethyl)piperazin-1-yl)pyrazolo[1,5-a]pyridin-3-yl)(methyl-d3)amino)-4-(4-fluorophenyl)thiazole-5-carbonitrile]"
